US10335449B2, “Rho associated kinase (ROCK) inhibitors and their use in treating disease” (UNIVERSITY OF HOUSTON SYSTEM, priority 2014, dated 2019)
Values joined by “and” are separate entries in the source; they are usually repeats but may differ in a detail not shown here. Equal values may be shown once. “Also recorded” adds a separate entry of the source. No end group written: not given here.

Columns and labels:
protein kinase A = conditions: cited from earlier work
citron kinase = citron kinase (Homo sapiens, UniProt O14578); conditions: cited from earlier work
citron kinase, sequence (O14578 whole entry, the tested form may be a part): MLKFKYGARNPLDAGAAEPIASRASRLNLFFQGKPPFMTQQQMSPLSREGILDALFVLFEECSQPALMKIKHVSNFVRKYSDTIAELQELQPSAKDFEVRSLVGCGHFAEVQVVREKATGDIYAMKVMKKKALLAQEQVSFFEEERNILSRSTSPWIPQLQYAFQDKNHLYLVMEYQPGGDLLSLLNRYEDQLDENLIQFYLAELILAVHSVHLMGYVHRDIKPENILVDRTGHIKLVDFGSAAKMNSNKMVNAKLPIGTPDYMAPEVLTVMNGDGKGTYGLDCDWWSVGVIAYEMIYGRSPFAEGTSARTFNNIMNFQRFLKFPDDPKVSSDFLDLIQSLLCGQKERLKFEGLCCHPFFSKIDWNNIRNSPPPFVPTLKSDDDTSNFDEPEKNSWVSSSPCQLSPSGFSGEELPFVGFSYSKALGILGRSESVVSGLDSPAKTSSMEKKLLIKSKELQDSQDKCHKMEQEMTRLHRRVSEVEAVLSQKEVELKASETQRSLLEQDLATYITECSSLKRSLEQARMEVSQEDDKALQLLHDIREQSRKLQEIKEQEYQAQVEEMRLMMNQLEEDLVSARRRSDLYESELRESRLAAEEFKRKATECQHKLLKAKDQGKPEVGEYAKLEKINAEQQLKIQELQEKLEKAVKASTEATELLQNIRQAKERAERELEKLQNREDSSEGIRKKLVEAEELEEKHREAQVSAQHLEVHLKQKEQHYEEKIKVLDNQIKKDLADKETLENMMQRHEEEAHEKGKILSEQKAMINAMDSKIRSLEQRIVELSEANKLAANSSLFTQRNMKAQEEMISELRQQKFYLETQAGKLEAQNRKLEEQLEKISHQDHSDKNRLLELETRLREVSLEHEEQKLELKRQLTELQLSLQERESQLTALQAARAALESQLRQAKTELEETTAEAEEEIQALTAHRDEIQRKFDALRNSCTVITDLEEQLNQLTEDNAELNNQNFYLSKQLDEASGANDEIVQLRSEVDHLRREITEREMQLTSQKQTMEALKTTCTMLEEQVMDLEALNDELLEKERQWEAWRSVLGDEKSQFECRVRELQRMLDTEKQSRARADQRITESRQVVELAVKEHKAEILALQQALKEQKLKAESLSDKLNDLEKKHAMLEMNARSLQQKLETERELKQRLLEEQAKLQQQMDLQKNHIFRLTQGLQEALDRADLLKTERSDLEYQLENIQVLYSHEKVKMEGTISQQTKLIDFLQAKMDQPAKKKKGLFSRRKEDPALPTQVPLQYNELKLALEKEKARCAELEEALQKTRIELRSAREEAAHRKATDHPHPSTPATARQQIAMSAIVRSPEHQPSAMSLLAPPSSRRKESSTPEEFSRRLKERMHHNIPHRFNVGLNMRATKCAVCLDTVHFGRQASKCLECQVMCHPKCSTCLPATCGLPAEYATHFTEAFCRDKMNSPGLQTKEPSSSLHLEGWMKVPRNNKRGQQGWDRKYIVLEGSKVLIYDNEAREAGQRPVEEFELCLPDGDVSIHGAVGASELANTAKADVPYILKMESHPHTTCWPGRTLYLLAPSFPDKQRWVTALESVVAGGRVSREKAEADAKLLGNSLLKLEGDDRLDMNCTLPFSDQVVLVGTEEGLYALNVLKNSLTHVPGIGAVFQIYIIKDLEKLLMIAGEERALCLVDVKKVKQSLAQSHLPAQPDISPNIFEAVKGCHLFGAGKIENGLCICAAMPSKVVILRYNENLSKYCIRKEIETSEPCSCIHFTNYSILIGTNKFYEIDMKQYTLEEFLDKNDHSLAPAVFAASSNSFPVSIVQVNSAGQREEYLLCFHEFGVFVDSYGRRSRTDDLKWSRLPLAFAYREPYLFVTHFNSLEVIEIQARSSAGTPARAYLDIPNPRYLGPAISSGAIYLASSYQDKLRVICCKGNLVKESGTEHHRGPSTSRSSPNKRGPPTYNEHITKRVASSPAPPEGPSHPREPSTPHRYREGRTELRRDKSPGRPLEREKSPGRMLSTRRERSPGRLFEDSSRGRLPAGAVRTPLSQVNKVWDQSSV

[1] = target: T1, ROCK1 catalytic domain (MBP-ROCK1) (Homo sapiens, UniProt Q13464); assay: ROCK1 autophosphorylation inhibition by phage-displayed peptides; format: biochemical; conditions: for ROCK autophosphorylation inhibition: high ATP levels (1 mM)
T1 construct: made in house
T1 sequence (Q13464 76-338 limits assumed, species assumed): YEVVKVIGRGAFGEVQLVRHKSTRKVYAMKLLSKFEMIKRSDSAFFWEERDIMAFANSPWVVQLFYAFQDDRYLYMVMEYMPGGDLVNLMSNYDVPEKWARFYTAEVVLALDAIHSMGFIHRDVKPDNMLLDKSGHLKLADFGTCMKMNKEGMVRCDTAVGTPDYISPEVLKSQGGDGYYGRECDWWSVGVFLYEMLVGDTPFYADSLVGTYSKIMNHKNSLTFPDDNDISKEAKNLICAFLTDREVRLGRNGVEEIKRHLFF
Protocol: The maltose binding protein fusion protein linked to the ROCK1 kinase domain (MBP-ROCK1) was incubated with a Ph.D-12 phage display library of 12 amino acids in length (New England Biolabs, Inc).
The ROCK1 catalytic domain (MBP-ROCK1) was linked to a maltose binding protein fusion protein and was incubated with a Ph.D-12 phage display library of 12 amino acids in length (New England Biolabs, Inc.).

cellular cytoskeleton = assay: Cellular cytoskeleton disruption in cell culture; format: cell-based; conditions: added to cell culture medium
From the text: Peptides25 was synthesized and one of which contained a fusion of the N′ end terminal TAT sequence (TATpeptide25), which allows peptides and proteins easy entry into cells.
Peptides25 was synthesized and an additional synthesis which contained a fusion of the N′ end terminal TAT sequence (TATpeptide25), which allows peptides and proteins easy entry into cells. […] The TAT polypeptide sequence alone was ineffective. At the cellular level, the cell cytoskeleton changed after TATpeptide25 was introduced into cell culture medium as expected, since ROCK is a mediator for cell morphology and cell migration.

[2] = tested on: cell movement into the wound (ROCK1); assay: Wound healing scratch test; format: cell-based; conditions: for percent of healing (mean): standard scratch test, at least N=5 trials, control mean 17.4
Protocol: Peptide25 change in perimeter (mean: 15%; p-value: 0.03) was evaluated for 4 separate experiments with each having 3 trials for a total of 12 measurements. These experiments included two controls, one with no treatment the other with only the TAT peptide.
Peptide fragments were chosen based on the information from analysis of critical residues and the candidate sequences Pep25-A AAYSPST (Pep25-A; SEQ ID NO: 62) and ERTYSPS (Pep25-P2; SEQ ID NO: 69) were evaluated again using a wound healing scratch test.

ROCK1 = ROCK1 (Homo sapiens, UniProt Q13464); assay: Luciferase assay of peptide25 fragments and alanine substitutions; format: biochemical
ROCK1, sequence (Q13464 whole entry, species assumed, the tested form may be a part): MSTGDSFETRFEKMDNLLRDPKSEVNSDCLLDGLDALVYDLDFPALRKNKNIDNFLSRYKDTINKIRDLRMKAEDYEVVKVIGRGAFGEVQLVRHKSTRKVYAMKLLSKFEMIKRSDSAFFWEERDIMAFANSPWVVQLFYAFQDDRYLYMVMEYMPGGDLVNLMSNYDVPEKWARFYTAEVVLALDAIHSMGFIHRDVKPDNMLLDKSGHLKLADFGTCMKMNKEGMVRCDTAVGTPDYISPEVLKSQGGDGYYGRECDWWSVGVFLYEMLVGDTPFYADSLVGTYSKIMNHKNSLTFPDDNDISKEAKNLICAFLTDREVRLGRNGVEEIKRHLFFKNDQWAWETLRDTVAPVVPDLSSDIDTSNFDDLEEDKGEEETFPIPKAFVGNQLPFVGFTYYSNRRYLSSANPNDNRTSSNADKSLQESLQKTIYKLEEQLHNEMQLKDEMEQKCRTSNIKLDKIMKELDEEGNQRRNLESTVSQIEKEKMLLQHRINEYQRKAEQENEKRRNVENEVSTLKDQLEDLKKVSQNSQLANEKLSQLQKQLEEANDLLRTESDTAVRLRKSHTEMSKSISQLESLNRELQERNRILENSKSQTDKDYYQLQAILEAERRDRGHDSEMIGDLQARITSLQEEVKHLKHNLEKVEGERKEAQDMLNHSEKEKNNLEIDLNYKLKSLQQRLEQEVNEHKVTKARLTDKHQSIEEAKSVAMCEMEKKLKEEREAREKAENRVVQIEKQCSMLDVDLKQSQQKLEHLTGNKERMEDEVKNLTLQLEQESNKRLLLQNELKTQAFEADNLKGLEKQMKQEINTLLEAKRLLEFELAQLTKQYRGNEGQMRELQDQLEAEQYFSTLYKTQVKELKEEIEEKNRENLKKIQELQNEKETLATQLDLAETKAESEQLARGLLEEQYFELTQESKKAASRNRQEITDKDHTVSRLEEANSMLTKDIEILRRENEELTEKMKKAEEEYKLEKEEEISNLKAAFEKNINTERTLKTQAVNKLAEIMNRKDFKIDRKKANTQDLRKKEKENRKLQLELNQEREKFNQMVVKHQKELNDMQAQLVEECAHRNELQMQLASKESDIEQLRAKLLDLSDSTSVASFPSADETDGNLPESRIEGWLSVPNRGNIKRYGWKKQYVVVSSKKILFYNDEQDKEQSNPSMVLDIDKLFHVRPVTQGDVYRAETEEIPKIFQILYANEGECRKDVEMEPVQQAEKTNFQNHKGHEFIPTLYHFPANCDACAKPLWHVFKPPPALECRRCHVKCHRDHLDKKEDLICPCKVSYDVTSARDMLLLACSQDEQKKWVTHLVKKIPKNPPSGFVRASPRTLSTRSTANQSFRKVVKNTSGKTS
Protocol: (Right panel) Likewise the alanine substitution at positions Y4, S5, P6, and S7 all reduced the effectiveness of peptide25.
The peptide25 was divided into fragments; ERTYS (F1; SEQ ID NO: 3), YSPST (F2; SEQ ID NO: 4), and STAVRS (F3; SEQ ID NO: 2). […] Additionally, an alanine substitution was performed at each position to look for amino acids that putatively might be important to binding and when replaced reduced the response.

[3] = tested on: aortic rings contracted with U46619; assay: Aortic ring contractility assay (ring bath, U46619); parameters: species or system mice
Protocol: Channel evaluation of concentrations 150, 200, 300, 100, 250, and 50 μM. Channel 7 (last graph) is the control.
Aortas were collected from adult mice, removed the surrounding fat tissues and installed the freshly cut rings in 2 mm sections on the isometric transducer apparatus. After adjusting the rings tension through series of contraction and relaxation, the rings were constricted 3 times with the 40 mM KCl to achieve consistent contraction. In order to find the effective contraction inducing dose of U46619, following the relaxation of the rings after the KCl contraction, the rings were subjected to contraction by adding different doses of U46619, a vasoconstrictor. 1-3 nM U46619 was chosen do the further experiments. […] Second dose of U46619 was applied to contract the ring. The affection was measured by the difference of the highest response of U46619 with and without Pep25-P2. […] One ring had 26% decreasing, the other had 40% decreasing.

ROCK = ROCK and S6 substrate reaction followed by mass spectrum; format: biochemical
ROCK, sequence (Q13464 6-415 limits assumed): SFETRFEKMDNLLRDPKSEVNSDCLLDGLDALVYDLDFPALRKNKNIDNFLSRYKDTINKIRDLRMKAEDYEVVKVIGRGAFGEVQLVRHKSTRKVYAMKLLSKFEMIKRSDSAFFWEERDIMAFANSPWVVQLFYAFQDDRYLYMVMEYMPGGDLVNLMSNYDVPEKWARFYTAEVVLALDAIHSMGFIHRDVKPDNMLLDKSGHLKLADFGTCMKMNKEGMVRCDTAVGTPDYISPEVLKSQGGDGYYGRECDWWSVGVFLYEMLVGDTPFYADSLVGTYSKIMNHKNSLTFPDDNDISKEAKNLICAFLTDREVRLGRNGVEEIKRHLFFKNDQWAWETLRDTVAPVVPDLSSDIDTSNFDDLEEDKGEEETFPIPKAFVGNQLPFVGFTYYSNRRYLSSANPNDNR
Protocol: FIG. 10—(Left panel) Mass spectrum, two peaks labeled as S6 and pS6 were non-phosphorylated and phosphorylated S6 from ROCK reaction mixture. Following the decreasing concentration of Pep25-P2, the phosphorylated peak pS6 was increasing. (Right panel) S6 conversion ratios were calculated by phosphorylated peak area divided by the sum of phosphorylated and non-phosphorylated peaks' areas.
To determine its inhibition at substrate conversion, different concentrations of Pep25-P2 was added to a ROCK and S6 (substrate) reaction mixture. In MS data, peaks representing phosphorylated and non-phosphorylated S6 substrates were then identified (FIG. 10).

ROCK2 = ROCK2 (Homo sapiens, UniProt O75116); assay: Surface Plasmon Resonance binding (BiaCore); conditions: SPR, data not shown
From the text: FIG. 6—Determination of binding affinity of TATpeptide25. Proteins MBP, ROCK2, ROCK1-553. ROCK1-415 Were immobilized on CM-5 chip and peptide binding affinity was monitored by BiaCore system. Peptide TAT was used as control to monitored non-specific binding.
Surface Plasmon Resonance (SPR) was used to measure peptide25 binding efficiency with ROCK.

O=S(=O)(c1cccc2cnccc12)N1CCCNCC1 [Fusadil]
inhibition of protein kinase A (protein kinase A): also inhibit | inhibition of citron kinase (citron kinase): also inhibit

C[C@@H](N)[C@H]1CC[C@H](C(=O)Nc2ccncc2)CC1 [Y27632]
inhibition of protein kinase A (protein kinase A): also inhibit | ROCK autophosphorylation inhibition [1]: blocked Y27632 inhibitory activity | effect on cellular cytoskeleton (cellular cytoskeleton): melted cytoskeleton | inhibition of citron kinase (citron kinase): also inhibit

AAYSPST [Pep25-A]
percent of healing (mean) [2]: 15.1%

ERTYS [F1]
inhibitory activity measured by luciferase assay (ROCK1): retained its activity

ERTYSPS [Pep25-P2]
suppression of U46619 contractility ([3]; 50-300 μM, preincubation 20 min): showed suppression of contractility of U46619; also recorded: dose dependant response | decrease of highest U46619 contraction response ([3]; 200 and 300 μM preincubated 10 min, one ring each, 1-3 nM U46619): 26% and 40% | wound healing / ROCK1 inhibition in scratch test [2]: inhibited ROCK1 more effectively; also recorded: inhibited wound healing | effective dose from dose curve ([2]; scratch test dose response): 40 µM | percent of healing (mean) [2]: 13.1% | effect on cellular cytoskeleton (cellular cytoskeleton): disrupted actin exoskeleton formation | phosphorylation of substrate S6 by ROCK (conversion ratio) (ROCK; different concentrations of peptide in ROCK and S6 reaction mixture): repressed the phosphorylation of substrate S6 by ROCK | phosphorylation of the peptide by ROCK (ROCK; mass spectrum): couldn't be phosphorylated by ROCK

ERTYSPSTAVRS [peptide25]
ROCK autophosphorylation inhibition [1]: blocked ROCK autophosphorylation | ROCK1 activity ([1]; in the presence of mM ATP): blocked ROCK1 activity | autophosphorylated inhibition ([1]; phage display candidates): exhibited autophosphorylated inhibition | change in perimeter at the intersection of the scratch (mean) ([2]; 4 separate experiments, 3 trials each, 12 measurements, p-value 0.03): 15% | binding with ROCK1 as compared to ROCK2 (ROCK2): demonstrated some difference

STAVRS [F3]
inhibitory activity measured by luciferase assay (ROCK1): lost effectively; also recorded: did not confer an inhibitory response

TATpeptide25: peptide25 with a fusion of the N′ end terminal TAT sequence (ERTYSPSTAVRS; also: N-terminal TAT sequence fusion, not in given chain)
effect on cellular cytoskeleton (cellular cytoskeleton): disassociated or “melted” cellular cytoskeleton | effect on cellular cytoskeleton (cellular cytoskeleton; listed as TAT-end-labeled peptide25): melted cytoskeleton

YSPST [F2]
inhibitory activity measured by luciferase assay (ROCK1): retained its activity
